From PMC7395068, “The evolution of strategies to minimise the risk of human drug-induced liver injury (DILI) in drug discovery and development” (Archives of Toxicology, 2020)
Like-named read-outs stand apart in the source and are kept apart here.

Tests used:
[1] = in vivo; cited from earlier work
HepaRG spheroids = assay: Combined HCI (HCS) and cellular ATP 3D assay in HepaRG spheroids; conditions: for HepaRG <25x Avg Cmax ATP / HepaRG <100x Avg Cmaxu ATP: ATP endpoint; for HepaRG <25x Avg Cmax ATP / HepaRG <25x Avg Cmax HCS / HepaRG <25x Avg Cmax All: cut-off <25x Avg Cmax; for HepaRG <100x Avg Cmaxu ATP / HepaRG <100x Avg Cmaxu HCS / HepaRG <100x Avg Cmaxu All: cut-off <100x Avg Cmaxu; for HepaRG <25x Avg Cmax HCS / HepaRG <100x Avg Cmaxu HCS: HCS endpoints; for HepaRG <25x Avg Cmax All: all endpoints (ATP and HCS); for HepaRG Cmax max All / HepaRG Cmax min All / HepaRG <10 uM All / HepaRG <100x Avg Cmaxu All: all endpoints; for HepaRG Cmax max All: Cmax max used; for HepaRG Cmax min All: Cmax min used; for HepaRG <10 uM All: cut-off <10 uM; for DILI prediction HepaRG spheroids (HCS-MEC): Microtissue model structural based (HCI), combined HCS and ATP, MEC < 25 × Cmax.tot cut-off; for minimal effective concentration: Homo sapiens; for HepaRG <25x Avg Cmax ATP / HepaRG <100x Avg Cmaxu ATP / HepaRG <25x Avg Cmax HCS / HepaRG <100x Avg Cmaxu HCS / HepaRG <25x Avg Cmax All / HepaRG Cmax max All / HepaRG Cmax min All / HepaRG <10 uM All / HepaRG <100x Avg Cmaxu All / minimal effective concentration: HepaRG
hLiMTs [2] = assay: Combined HCI (HCS) and cellular ATP 3D assay in hLiMTs; conditions: for minimal effective concentration: Homo sapiens; for DILI prediction hLiMTs (HCS-MEC): Microtissue model structural based (HCI), combined HCS and ATP, MEC < 25 × Cmax.tot cut-off; for hLiMTs <25x Avg Cmax ATP / hLiMTs <100x Avg Cmaxu ATP: ATP endpoint; for hLiMTs <25x Avg Cmax ATP / hLiMTs <25x Avg Cmax HCS / hLiMTs <25x Avg Cmax All: cut-off <25x Avg Cmax; for hLiMTs <100x Avg Cmaxu ATP / hLiMTs <100x Avg Cmaxu HCS / hLiMTs <100x Avg Cmaxu All: cut-off <100x Avg Cmaxu; for hLiMTs <25x Avg Cmax HCS / hLiMTs <100x Avg Cmaxu HCS: HCS endpoints; for hLiMTs <25x Avg Cmax All: all endpoints (ATP and HCS); for hLiMTs Cmax max All / hLiMTs Cmax min All / hLiMTs <10 uM All / hLiMTs <100x Avg Cmaxu All: all endpoints; for hLiMTs Cmax max All: Cmax max used; for hLiMTs Cmax min All: Cmax min used; for hLiMTs <10 uM All: cut-off <10 uM
hLiMTs [3] = conditions: cited from earlier work
[4] = read-out: Human plasma Cmax; total plasma Cmax.tot, median of 9 literature references; cited from earlier work
PHH = conditions: cited from earlier work
[5] = plasma free fraction; cited from earlier work
[6] = in vivo; cited from earlier work; remark: listed apart in the source
[7] = Plasma free fraction (fu) and unbound Cmax (Cmax,u); assay type: in vitro ADME, human; conditions: unbound plasma Cmax
[8] = test system: THLE or HepG2 cells, isolated mitochondria, BSEP; conditions: cited from earlier work
[9] = test system: primary human hepatocytes, NIH3T3 fibroblasts, BSEP, CYP3A4; conditions: cited from earlier work
[10] = test system: isolated mouse liver mitochondria; conditions: In vitro Assay; ref Porceddu 2012; cited from earlier work
[11] = In vitro Assay, ref Proctor 2017
[12] = In vitro Assay, ref Schadt 2015

HepaRG <25x Avg Cmax ATP (HepaRG spheroids)	HepaRG <100x Avg Cmaxu ATP (HepaRG spheroids)	HepaRG <25x Avg Cmax HCS (HepaRG spheroids)	HepaRG <100x Avg Cmaxu HCS (HepaRG spheroids)	HepaRG <25x Avg Cmax All (HepaRG spheroids)	HepaRG Cmax max All (HepaRG spheroids)	HepaRG Cmax min All (HepaRG spheroids)	HepaRG <10 uM All (HepaRG spheroids)	HepaRG <100x Avg Cmaxu All (HepaRG spheroids)	hLiMTs <25x Avg Cmax ATP (hLiMTs [2])	hLiMTs <100x Avg Cmaxu ATP (hLiMTs [2])	hLiMTs <25x Avg Cmax HCS (hLiMTs [2])	hLiMTs <100x Avg Cmaxu HCS (hLiMTs [2])	hLiMTs <25x Avg Cmax All (hLiMTs [2])	hLiMTs Cmax max All (hLiMTs [2])	hLiMTs Cmax min All (hLiMTs [2])	hLiMTs <10 uM All (hLiMTs [2])	hLiMTs <100x Avg Cmaxu All (hLiMTs [2])	Compound	DILI prediction HepaRG spheroids (HCS-MEC) (HepaRG spheroids)	DILI prediction hLiMTs (HCS-MEC) (hLiMTs [2])	also measured
-ve	-ve	-ve	-ve	-ve	-ve	-ve	-ve	-ve	-ve	-ve	-ve	+ve (<100x Avg Cmaxu)	-ve	-ve	-ve	-ve	+ve (<100x Avg Cmaxu)	Nc1cc(N2CCCCC2)nc(N)[n+]1[O-] [minoxidil]	-VE	-VE	Assigned DILI category [1]: 1; In vivo DILI [1]: -VE; minimal effective concentration (hLiMTs [2]; read-out: HCS endpoint MEC): 111 µM; hLiMTs ATP <100uM (hLiMTs [3]; [11]): -VE; hLiMTs/100uM, Proctor (2017) (hLiMTs [3]; hLiMTs, ATP, IC50 threshold 100 µM, ref Proctor et al. 2017): -VE; Cmax [4]: 1200 nM; PHH/100uM, Proctor (2017) (PHH; 2D PHH, ATP, IC50 threshold 100 µM, ref Proctor et al. 2017): -VE; PHH ATP <100uM (PHH; [11]): -VE; fu [5]: 0.990; DILI +VE (5-8), DILI -VE (-4) [6]: -VE; DILI severity category (Chen 2016) [6]: No; DILI severity category (Chen et al. [2016]) [6]: No; Human plasma Cmax,u [7]: 1183 nM; Partition Hybrid HRM Score ≥8, Aleo (2019) [8]: -VE; Rule of Two hybrid HRM Score ≥8, Aleo (2019) [8]: -VE
-ve	-ve	-ve	-ve	-ve	-ve	-ve	-ve	-ve	-ve	-ve	-ve	-ve	-ve	-ve	-ve	-ve	-ve	CCOC(=O)CN[C@@H](C(=O)N1CC[C@H]1C(=O)NCc1ccc(/C(N)=N\O)cc1)C1CCCCC1 [ximelagatran]	-VE	-VE	DILI in vitro assay prediction, Schadt (2015) ([9]; BSEP & Metabolism based, ref Schadt et al. 2015): -VE; Cellular toxicity (3T3 cells) [9, 12]: -VE; Combined Assay [9, 12]: -VE; GSH adduct HML [9, 12]: -VE; Hepatocyte cellular toxicity [9, 12]: -VE; MitoTox 3T3 [9, 12]: -VE; TDI CYP3A4 [9, 12]: -VE; hBSEP inhibition [9, 12]: -VE; minimal effective concentration (HepaRG spheroids; read-out: ATP endpoint MEC): 149 µM; minimal effective concentration (HepaRG spheroids; read-out: HCS endpoint MEC): 133 µM; minimal effective concentration (hLiMTs [2]; read-out: ATP endpoint MEC): 61.8 µM; in vitro data EC2<=1x Cmax [10]: -VE; Cmax [4]: 380 nM; fu [5]: 0.210; Human plasma Cmax,u [7]: 80 nM
